Measurements: publication PMC12751000, “Dual Agonist/Antagonist Modulation of α9-Containing Nicotinic Acetylcholine Receptors by 2‑Ammoniumethyl Ethers of Stilbenol and Stilbenol Analogues” (Journal of Medicinal Chemistry, 2025)
“Also recorded” adds a separate entry of the source. Like-named read-outs stand apart in the source and are kept apart here.

Assays:
Format in all cases: cell-based
[1] = target: T1, hα9α10 nAChRs (Homo sapiens, UniProt Q9GZZ6+Q9UGM1); experiment: Two-electrode voltage clamp, inhibition of ACh-evoked currents at hα9α10 nAChRs expressed in Xenopus laevis oocytes; conditions: for IC50 / n H (Hill coefficient of inhibition): 6 μM ACh; for IC50: 5 min preincubation with compound, holding potential −80 mV
T1 construct: host or cells: Xenopus laevis oocytes, cRNA-injected (α9:α10 cRNA ratio 1:1)
Source text: (§1) The protocols were approved by the Animal Ethics Committees of the Victor Chang Cardiac Research Institute, Sydney, and the University of Wollongong (project number AE 20/17). Human α9 and α10 nAChR clones were obtained from OriGene (Rockville, MD, USA) and subcloned into the pT7TS vector. The human α7 nAChR clone, in the plasmid pMXT, was kindly provided by J. Lindstrom (University of Pennsylvania, USA). Constructs of human nAChR subunits were linearized and used for in vitro cRNA transcription with the SP6/T7 mMessage mMachine transcription kit (AMBION, Forster City, CA, USA).
(§2) The cRNA concentration was verified spectrophotometrically and by gel electrophoresis.
(§3) Electrophysiological recordings were conducted 2–5 days after cRNA injection using a HiClamp automated two-electrode voltage-clamp screening system (MultiChannel Systems GmbH, Reutlingen, Germany) with a holding potential of –80 mV. To prevent the activation of endogenous Ca^2+-activated chloride channels due to the Ca^2+ permeability of α9-containing nAChRs, oocytes were preincubated with 100 μM BAPTA-AM for approximately 3 h.
For concentration–response experiments assessing modulation of ACh-evoked responses, oocytes were initially superfused with ND96 or ND115 solution, depending on the receptor subtype. […] After ACh application, a 3 min washout was performed. Oocytes were then incubated with the test compound for 5 min, followed by coapplication of the compound and ACh in a continuously flowing bath solution. All compounds were prepared in ND96 or ND115 with 0.1% bovine serum albumin (BSA).

[2] = target: T1, hα9α10 nAChRs; experiment: Two-electrode voltage clamp, compound-evoked currents (compound applied alone) at hα9α10 nAChRs in Xenopus laevis oocytes
Source text: as §1, §2, §3
Concentration–response experiments assessing compound-evoked currents were performed by initially superfusing α9-containing nAChRs oocytes with ND115 solution. Test compounds were then applied at concentrations ranging from 300 pM to 30 μM, followed by a 3 min washout period.

[3] = target: T2, hα7 nAChRs (Homo sapiens, UniProt P36544); experiment: Two-electrode voltage clamp, inhibition of ACh-evoked currents at hα7 nAChRs in Xenopus laevis oocytes; conditions: for n H (Hill coefficient of inhibition) / IC50: 100 μM ACh; for IC50: 5 min preincubation
T2 construct: host or cells: Xenopus laevis oocytes, cRNA-injected (10 ng)

[4] = system: BzATP-induced release of IL-1β from human monocytic THP-1 cells; experiment: BzATP-induced IL-1β release by LPS-primed human monocytic THP-1 cells (ELISA); conditions: for Effect on the inhibitory effect of ACh on BzATP-induced IL-1β release: LPS 1 μg/mL 5 h, BzATP 100 μM 40 min; for Effect on BzATP-induced IL-1β release in the absence of ACh: LPS-primed THP-1
Procedure: THP-1 cells were primed with lipopolysaccharide (LPS; 1 μg/mL, 5 h) followed by stimulation with the P2X7 receptor agonist BzATP (2′/3′-O-(4-benzoylbenzoyl)-adenosine-5′-triphosphate, tri(triethylammonium) salt) for 40 min to induce IL-1β release, which was quantified by ELISA.
Experiments on human monocytic THP-1 cells (German Collection of Microorganisms and Cell Cultures, Braunschweig, Germany, Cat# ACC16) were performed as described before. […] The supernatants were collected and stored for later IL-1β measurements using the Human IL-1β/IL-1F2 DuoSet ELISA from R&D Systems (Minneapolis MN, USA, Cat# DY201). Cell viability was assessed by measuring lactate dehydrogenase (LDH) activity in the supernatants using the CytoTox 96 Non-Radioactive Cytotoxicity Assay (Promega, Madison WI, USA; Cat# G1780). LDH activities were expressed as a percentage of total LDH activity from lysed control cells. Data on the BzATP-induced IL-1β release and LDH activity were analyzed using SPSS (Version 29.0.2.0, IBM, Armonk, NY, United States) and visualized using Inkscape version 0.48.5 r10040 (Free and Open Source Software licensed under the GPL). The data were analyzed first by the Friedman test.

[5] = target: T3, hα9 nAChRs (Homo sapiens, UniProt Q9UGM1); experiment: Two-electrode voltage clamp, inhibition of ACh-evoked currents at hα9 nAChRs in Xenopus laevis oocytes; conditions: for n H (Hill coefficient of inhibition) / IC50: 50 μM ACh; for IC50: 5 min preincubation
T3 construct: host or cells: Xenopus laevis oocytes, cRNA-injected

[6] = target: T2, hα7 nAChRs; experiment: Two-electrode voltage clamp, compound-evoked currents at hα7 nAChRs in Xenopus laevis oocytes; conditions: compound applied alone
Procedure: Additionally, five compounds of the series were tested on the homomeric hα7 and hα9 nAChRs.
as §1, §2, §3

[7] = target: T3, hα9 nAChRs; experiment: Two-electrode voltage clamp, compound-evoked currents at hα9 nAChRs in Xenopus laevis oocytes; conditions: for n H (Hill coefficient of activation) / EC50: compound applied alone; for EC50: read-out: EC50
[8] = compound applied alone (300 pM to 30 μM), normalized to response at highest concentration, read-out: EC50

T1 sequence (Q9UGM1 26-479 limits assumed): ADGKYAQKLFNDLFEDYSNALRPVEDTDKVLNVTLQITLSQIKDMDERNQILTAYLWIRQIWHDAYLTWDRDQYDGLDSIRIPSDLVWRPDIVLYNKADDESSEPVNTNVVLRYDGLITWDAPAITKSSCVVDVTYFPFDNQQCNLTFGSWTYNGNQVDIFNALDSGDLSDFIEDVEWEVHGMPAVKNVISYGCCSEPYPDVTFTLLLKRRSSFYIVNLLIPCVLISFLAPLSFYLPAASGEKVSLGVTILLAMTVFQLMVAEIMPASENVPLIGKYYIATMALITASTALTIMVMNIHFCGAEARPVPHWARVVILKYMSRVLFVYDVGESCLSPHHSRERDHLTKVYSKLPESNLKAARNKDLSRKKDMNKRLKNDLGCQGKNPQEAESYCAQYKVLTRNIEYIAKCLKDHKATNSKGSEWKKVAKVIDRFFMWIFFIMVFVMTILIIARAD
T1 sequence (Q9GZZ6 25-450): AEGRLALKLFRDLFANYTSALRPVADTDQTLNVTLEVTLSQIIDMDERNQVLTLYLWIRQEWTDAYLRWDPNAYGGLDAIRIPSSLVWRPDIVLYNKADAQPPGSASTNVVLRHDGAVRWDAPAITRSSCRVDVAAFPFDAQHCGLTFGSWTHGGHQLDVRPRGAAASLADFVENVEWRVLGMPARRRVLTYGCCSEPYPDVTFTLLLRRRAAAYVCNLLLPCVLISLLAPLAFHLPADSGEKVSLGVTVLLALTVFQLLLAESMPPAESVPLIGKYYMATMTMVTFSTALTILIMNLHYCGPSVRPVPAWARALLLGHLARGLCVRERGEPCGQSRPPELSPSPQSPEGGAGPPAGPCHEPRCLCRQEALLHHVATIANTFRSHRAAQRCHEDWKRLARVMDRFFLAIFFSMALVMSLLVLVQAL
T3 sequence (Q9UGM1 26-479 limits assumed): as the sequence (Q9UGM1 26-479 limits assumed) above
T2 sequence (P36544 23-502): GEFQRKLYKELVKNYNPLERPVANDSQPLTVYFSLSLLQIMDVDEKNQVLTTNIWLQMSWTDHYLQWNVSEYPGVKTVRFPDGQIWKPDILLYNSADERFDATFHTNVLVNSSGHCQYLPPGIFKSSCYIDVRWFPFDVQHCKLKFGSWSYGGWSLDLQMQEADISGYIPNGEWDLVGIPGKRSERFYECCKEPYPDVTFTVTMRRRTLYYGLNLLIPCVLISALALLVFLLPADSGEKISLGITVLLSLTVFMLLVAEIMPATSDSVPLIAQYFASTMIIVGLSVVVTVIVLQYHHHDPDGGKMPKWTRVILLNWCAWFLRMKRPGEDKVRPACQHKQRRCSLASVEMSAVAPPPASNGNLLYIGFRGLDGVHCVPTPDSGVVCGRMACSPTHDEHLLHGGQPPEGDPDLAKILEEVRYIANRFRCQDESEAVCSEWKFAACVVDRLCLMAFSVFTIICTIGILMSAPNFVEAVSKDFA

Row | SMILES | IC50 [1] [nM] | EC50 [2, 8] [nM] | IC50 ratio to Cpd 1 [1] | n H (Hill coefficient of inhibition) [1] | EC50 ratio to Cpd 1 [2] | n H (Hill coefficient of activation) ([2]; compound applied alone) | other results
1 | C[N+](CCOc1ccc(/C=C/c2ccccc2)cc1)(Cc1ccccc1)Cc1ccccc1 [Compound 13] | 1110 | 7040 |  |  |  |  | EC50 ([2]; compound applied alone, read-out: EC50): > 5000 nM
2 | C[N+](C)(CCCCOc1ccc(/C=C/c2ccccc2)cc1)C1CCCCC1.[I-] [Compound 15, (E)-N,N-Dimethyl-N-(4-(4-styrylphenoxy)butyl)cyclohexanaminium Iodide] | 124 | 1470 | 2.1 | 2.0 | 3.8 | 1.4 | 
3 | CC[N+](CC)(CC)CCOc1ccc(-c2ccccc2)cc1 [Compound 17] | 117 | 479 | 1.9 | 1.4 | 1.2 | 3.3 | 
4 | C[N+](C)(CCCOc1ccc(/C=C/c2ccccc2)cc1)C1CCCCC1.[I-] [Compound 14, (E)-N,N-Dimethyl-N-(3-(4-styrylphenoxy)propyl)cyclohexanaminium Iodide] | 98.9 | 511 | 1.6 | 2.1 | 1.3 | 3.0 | 
5 | CC[N+](CC)(CC)CCOc1ccc(CCc2ccccc2)cc1 [Compound 4] | 189 | 1140 |  |  |  |  | 
6 | C[N+](C)(CCOc1ccc(/C=C/c2ccccc2)cc1)Cc1ccccc1.[Br-] [Compound 10, (E)-N-Benzyl-N,N-dimethyl-2-(4-styrylphenoxy)ethanaminium Bromide] | 124 | 448 | 2.1 | 2.1 | 1.2 | 2.4 | 
7 | C[N+](C)(CCOc1ccc(/C=C/c2ccccc2)cc1)C1CCOCC1.[I-] [Compound 6, (E)-N,N-Dimethyl-N-(2-(4-styrylphenoxy)ethyl)tetrahydro-2H-pyran-4-aminium Iodide] | 55 | 185 | 0.9 | 2.1 | 0.5 | 2.4 | 
8 | CC[N+](CC)(CC)CCOc1ccc(OCc2ccccc2)cc1 [Compound 19] | 207 | 1020 | 3.4 | 1.6 | 2.6 | 1.9 | 
9 | C[N+](CCOc1ccc(/C=C/c2ccccc2)cc1)(C1CCCC1)C1CCCC1.[I-] [Compound 12, (E)-N-Cyclopentyl-N-methyl-N-(2-(4-styrylphenoxy)ethyl)cyclopentanaminium Iodide] | 378 | 1710 | 6.3 | 3.0 | 4.4 | 1.2 | 
10 | CC[N+](CC)(CC)CCOc1ccc(COc2ccccc2)cc1 [Compound 20] | 139 |  | 2.3 | 1.7 (1.6–1.8) [8] |  |  | EC50 ([2]; compound applied alone (300 pM to 30 μM), normalized to response at highest concentration): failed to activate; also recorded: failed to evoke currents; also recorded: No activity
11 | C[N+](C)(CCOc1ccc(/C=C/c2ccccc2)cc1)c1ccccc1.[I-] [Compound 9, (E)-N,N-Dimethyl-N-(2-(4-styrylphenoxy)ethyl)benzenaminium Iodide] | 95.1 | 474 | 1.6 | 2.1 | 1.2 | 3.3 | 
12 | CC[N+](CC)(CC)CCOc1ccc(C#Cc2ccccc2)cc1 [Compound 18] | 89 | 550 | 1.5 | 1.8 | 1.4 | 2.2 | 
13 | C[N+](C)(CCOc1ccc(OCc2ccccc2)cc1)C1CCCCC1.[I-] [Compound 21, N-(2-(4-(Benzyloxy)phenoxy)ethyl)-N,N-dimethylcyclohexanaminium Iodide] | 39.1 | 338 | 0.6 | 1.7 | 0.9 | 3.7 | IC50 ratio to Cpd 1 [3]: 1.0; n H (Hill coefficient of inhibition) [3]: 1.5; IC50 [3]: 419 nM; Effect on the inhibitory effect of ACh on BzATP-induced IL-1β release ([4]; compound 100 pM + ACh 10 μM): efficiently antagonized the inhibitory effect of ACh; Effect on BzATP-induced IL-1β release in the absence of ACh ([4]; compound 100 pM): minor reduction; Effect on the inhibitory effect of ACh on BzATP-induced IL-1β release ([4]; compound 100 nM + ACh 10 μM): mild antagonistic effects; Effect on BzATP-induced IL-1β release in the absence of ACh ([4]; compound 100 nM): effectively and significantly inhibited; IC50 ratio to Cpd 1 [5]: 0.9; n H (Hill coefficient of inhibition) [5]: 1.6; IC50 [5]: 171 nM; EC50 [6]: No activity; EC50 ratio to Cpd 1 [7]: 1.0; n H (Hill coefficient of activation) [7]: 2.2; EC50 [7]: 905 nM
14 | C[N+](C)(CCOc1ccc(CCc2ccccc2)cc1)C1CCCCC1.[I-] [Compound 16, N,N-Dimethyl-N-(2-(4-phenethylphenoxy)ethyl)cyclohexanaminium Iodide] | 168 | 482 | 2.8 | 3.8 | 1.3 | 3.2 | IC50 ratio to Cpd 1 [3]: 1.0; n H (Hill coefficient of inhibition) [3]: 1.8; IC50 [3]: 434 nM; Effect on the inhibitory effect of ACh on BzATP-induced IL-1β release ([4]; compound 100 pM + ACh 10 μM): efficiently antagonized the inhibitory effect of ACh; Effect on BzATP-induced IL-1β release in the absence of ACh ([4]; compound 100 pM): minor reduction; Effect on BzATP-induced IL-1β release in the absence of ACh ([4]; compound 100 nM): effectively and significantly inhibited; IC50 ratio to Cpd 1 [5]: 0.7; n H (Hill coefficient of inhibition) [5]: 1.5; IC50 [5]: 133 nM; EC50 [6]: no agonist activity; EC50 ratio to Cpd 1 [7]: 1.1; n H (Hill coefficient of activation) [7]: 2.4; EC50 [7]: 983 nM
15 | C[N+](C)(CCOc1ccc(/C=C/c2ccccc2)cc1)C1CCCC1.[I-] [Compound 7, (E)-N,N-Dimethyl-N-(2-(4-styrylphenoxy)ethyl)cyclopentanaminium Iodide] | 22.1 | 175 | 0.4 | 1.7 | 0.5 | 1.6 | 
16 | C[N+](C)(CCOc1ccc(/C=C/c2ccccc2)cc1)C1CCCCCC1.[I-] [Compound 8, (E)-N,N-Dimethyl-N-(2-(4-styrylphenoxy)ethyl)cycloheptanaminium Iodide] | 124 | 300 | 2.1 | 2.6 | 0.8 | 1.6 | 
17 | CC(=O)OCC[N+](C)(C)C [ACh, acetylcholine] |  |  |  |  |  |  | Effect on BzATP-induced IL-1β release ([4]; ACh 10 μM applied shortly before BzATP): significantly reduced
